In patent US10814010B2, “FOXC2 inhibitor and methods of use thereof” (The Board of Regents of The University of Texas System, priority 2018, dated 2020):

Legend:
[1] = tested on: PC3 cells; test: MTT cell viability assay, PC3; type: cell-based; conditions: Homo sapiens, PC-3, 24 hour treatment
Excerpt: Inhibition of EMT in CRPC could lead to a new form of therapeutics to aid once androgen-independence is achieved. However, in order for MC-1-F2 to be considered an effective chemotherapeutic agent, its EC50 in prostate cancer needed to be determined as well as how it compares to other chemotherapeutic agents on the market and whether it is able to inhibit chemoresistance or lower the sensitivity of CRPC to commercially available drugs. In order to determine the EC50 of MC-1-F2, an MTT assay on cell viability was performed in both DU145 and PC3. […] These doses are higher than those encountered with breast cancer cell lines. This is most likely due to the lower FOXC2 expression levels founds in prostate cell lines when compared to the breast cell lines.
(§1) Cell viability was assessed by MTT (3-(4,5-Dimethylthiazol-2-yl)-2,5-Diphenyltetrazolium Bromide) assay 5,000 cells were seeded on a 96-well cell culture plate and were incubated for at least 24 hours prior to drug treatment. The MTT reagent (Fisher Scientific) was added to the culture medium 3 hours prior to the end of compound incubation. The reaction took place in the 37° C. incubator with 5% CO2 for 3 hours. Cell culture medium was then removed from the wells. Cells with the insoluble purple formazan were lysed with DMSO for 10 mins at room temperature, 200 μL per well. Absorbance was read at 570 nm using a plate reader.

[2] = tested on: MCF-7 cells; test: MTT cell viability assay, MCF-7; type: cell-based; conditions: MCF-7, MTT, very low FOXC2 expression
Description: It was hypothesized that the specific binding of MC-1-F2 can lead to its specific cellular activity against cancer cells with high FOXC2 expression. This hypothesis was tested by evaluating MC-1-F2's cellular activity on cell lines with different FOXC2 expression levels: MCF-7, BT549, and MDA-MB-231. […] However, further studies are still underway. The specificity in cellular activity of MC-1-F2 was further evaluated in the form of a soft-agar colony forming assay to determine if MC-1-F2 was able to inhibit in vitro tumorigenicity of cancer cells in a FOXC2 expression-dependent manner. […] Further testing is underway in various breast cancer cell lines with different FOXC2 expression levels.
as §1, with “Bromide) assay. 1×10^4” for “Bromide) assay 5,000”, “on 48-well” for “on a 96-well”, “culture plate,” for “culture plate”, “temperature, 0.5 ml” for “temperature, 200 μL”, “well. The solution” for “well. Absorbance”, “was aliquot to 96-well plate for absorbance reading” for “was read”

[3] = tested on: DU145 cells; test: MTT cell viability assay, DU145; type: cell-based; conditions: Homo sapiens, DU-145, 24 hour treatment
Description: In order to determine the EC50 of MC-1-F2, an MTT assay on cell viability was performed in both DU145 and PC3.
as §1

[4] = tested on: MDA-MB-231 cells; test: Wound healing assay, MDA-MB-231; type: cell-based; conditions: MDA-MB-231, 20 μM, 24 hours
Description: Reversal of EMT mediated by MC-1-F2 was anticipated to lead to the inhibition of metastatic capability of cancer cells. […] A wound healing assay was carried out to examine the migratory capabilities of cells in closing a “wound” or gap over a period of 24 hours. […] Inhibition of migratory capabilities of cells only measures one aspect of EMT progression. EMT is marked also by increased invasiveness of cancer cells. Therefore, the invasive property of MDA-MB-231 cells treated with MC-1-F2 was examined (FIGS. 6B&C).
3×10^5 cells of MDA-MB-231 in 70 μL of DMEM media were seeded on an ibidi μ-dish (Ibidi) and incubated for 24 hours. The insert was removed carefully with tweezers, to create the “wound” and the dish rinsed with DPBS. Followed by the addition of DMEM media with applicable drug. Images were taken at various time points and monitoring of the migration of cells into the “gap” was recorded at several time points.

[5] = tested on: PC3 cells; test: Co-treatment MTT assay, PC3; conditions: constant ratio
[6] = target: T1, DNA binding domain (DBD) of FOXC2 (Homo sapiens, UniProt Q99958); test: ELISA-like binding assay, immobilized DNA binding domain of FOXC2; conditions: biotinylated compound
T1 construct: His6 (N, cleaved yes); MBP (N, cleaved yes); made in house; host or cells: E. coli BL21(DE3)-RIPL
T1 sequence (Q99958 60-163): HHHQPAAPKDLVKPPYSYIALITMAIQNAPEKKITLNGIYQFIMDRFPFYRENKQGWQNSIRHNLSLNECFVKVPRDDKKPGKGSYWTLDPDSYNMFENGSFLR
Description: The binding affinity of MC-1-F2 to full-length FOXC2 was determined using an ELISA-like binding assay. In this assay, varying concentrations of biotinylated MC-1-F2 or biotinylated MC-C (control; FIG. 12) were incubated in the wells with immobilized recombinant full-length FOXC2 or the DNA binding domain (DBD) of FOXC2 (FIG. 2A). After washing off unbound ligand, the wells were incubated with streptavidin-conjugated Qdot655, followed by fluorescence measurement of the wells using a plate reader. […] This is important for the specificity of MC-1-F2 to FOXC2 as several forkhead transcription factors share a very similar DNA-binding domain.
Clear bottom, black wall, 96 well plate (Corning) was coated with 1 μg/mL of full length FOXC2 or DNA binding domain (DBD) of FOXC2 protein in sensitizing buffer (0.621 g NaHCO3, 0.275 g Na2CO3 in 100 mL of water pH=9.5) overnight at 4° C. Wells were washed 3 times with 200 μL of wash buffer (lx PBS with 0.05% Tween-20). Wells were blocked with blocking buffer (1% BSA in 1×PBS with 0.05% Tween-20) for 1 hour at room temperature. 50 μL of serial dilutions of biotinylated compound in blocking buffer were added to each well and incubated for 1 hour at room temperature. Followed was the addition of […] of 20 nM of strepavidin-Qdot655 in blocking buffer for 1 hour at room temperature. […] Fluorescence was measured using a plate reader (Ex. 495, Em. 655).

N=C(N)NCCCCNc1nc(Nc2ccc(Oc3ccccc3)cc2)nc(N2CCN(c3nc(N)nc(Nc4ccc(N5CCOCC5)cc4)n3)CC2)n1 [MC-1-F2] was tested, and the EC50 [1] was 46.6 µM, the “inhibition of cell viability” value [2] was “little inhibition of cell viability” and the EC50 [3] was 48.1 µM. For the same compound, the “migratory activity / wound closure” value [4] was “inhibition of the migratory activity”, the “combination index with docetaxel (CompuSyn)” value [5] was “negative combination index” and the “combination effect with docetaxel” value ([5]; 24 hours) was “synergistic effects”. For the same compound, the “combination effect with enzalutamide (CompuSyn)” value ([5]; 24 hours) was “only additive effects” and the Kd [6] was > 100 µM.
